Bounds are passed on as bounds.

In assay [1] the test system is SF268-MCAT_Luc_dox-i-shYAPLevy (Clone 13) cells. The assay is described as follows: Proliferation assay (resazurin/AlamarBlue), SF268. Format: cell-based. Conditions: SF268, 72 hours.
The target of assay [2] is Avi-humanTEAD4^217-434 / Cy5 labeled humanYAP^60-100 (Homo sapiens (Human), UniProt Q15561). The assay is described as follows: In-vitro biochemical TR-FRET assay (TEAD4/YAP). To be noted: 1 h at room temperature. Format: binding. (Time-resolved FRET reads energy transfer from a long-lived donor to a nearby acceptor.)
Chain of Avi-humanTEAD4^217-434 / Cy5 labeled humanYAP^60-100 (Q15561 217-434): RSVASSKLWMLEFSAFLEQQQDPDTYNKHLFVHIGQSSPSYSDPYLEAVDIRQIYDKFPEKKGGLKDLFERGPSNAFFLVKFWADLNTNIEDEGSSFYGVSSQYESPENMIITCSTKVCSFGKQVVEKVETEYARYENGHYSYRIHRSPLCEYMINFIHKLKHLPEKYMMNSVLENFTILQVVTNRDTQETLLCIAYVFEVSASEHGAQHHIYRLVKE
For assay [3], the system named is MKN-45/Ubc-luc cells (unspecific inhibition of luciferase expression or activity). Description: Reporter gene assay specificity control (Ubc-Luc), MKN-45. Format: cell-based. Conditions: MKN-45/Ubc-luc specificity control, 24 hrs. In short, it runs like this: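 MKN-45 cells stably carrying a ubiquitin C promoter–firefly luciferase construct, treated the day after seeding with eleven 2-fold compound dilutions (0.1% DMSO final) for 24 hrs at 37° C. Luminescence read 5 min after Steady Glo addition; cell-free background subtracted, as a control for nonspecific luciferase inhibition.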
In general terms: In a reporter assay the amount or activity of a reporter protein is the signal.

Assay [4] deals with NCI-H2052 Tet-On shYAP_2371 pLenti6 MCAT_Luc cells. The assay is described as follows: Proliferation assay (resazurin/AlamarBlue), NCI-H2052. The assay is classed as cell-based. Conditions: NCI-H2052, 72 hours.
Assay [5] relates to YAP-dependent transcription in SF268-MCAT_Luc_dox-i-shYAPLevy (Clone 13) cells. Description: YAP reporter gene activity assay (MCAT-Luc), SF268. Format: cell-based. To be noted: SF268 MCAT_Luc, 24 hrs.
For assay [6], the system named is YAP-dependent transcription in NCI-H2052 Tet-On shYAP_2371 pLenti6 MCAT_Luc cells. Description: YAP reporter gene activity assay (MCAT-Luc), NCI-H2052. Conditions: 24 hrs. The assay is classed as cell-based.
In assay [7] the target is TEAD1-GFP in HEK293A cells (Homo sapiens (Human), UniProt P28347). The assay is described as follows: TEAD1 protein abundance flow cytometry assay in HEK293A. Format: cell-based. Conditions: HEK293A TEAD1-GFP-CHYSEL-mCherry sensor cells, 24 h, GFP signal by flow cytometry. In short, it runs like this: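 HEK293A stably expressing bicistronic TEAD1-GFP-CHYSEL-mCherry treated 24 h at 37° C with 10-point 3-fold series from 10 μM (0.1% DMSO), duplicate. Median GFP of 2,500 single cells by flow cytometry, normalized to parental HEK293A (0%) and DMSO (100%); DC50 from concentration-response curves.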
Chain of TEAD1-GFP in HEK293A cells (P28347 whole entry): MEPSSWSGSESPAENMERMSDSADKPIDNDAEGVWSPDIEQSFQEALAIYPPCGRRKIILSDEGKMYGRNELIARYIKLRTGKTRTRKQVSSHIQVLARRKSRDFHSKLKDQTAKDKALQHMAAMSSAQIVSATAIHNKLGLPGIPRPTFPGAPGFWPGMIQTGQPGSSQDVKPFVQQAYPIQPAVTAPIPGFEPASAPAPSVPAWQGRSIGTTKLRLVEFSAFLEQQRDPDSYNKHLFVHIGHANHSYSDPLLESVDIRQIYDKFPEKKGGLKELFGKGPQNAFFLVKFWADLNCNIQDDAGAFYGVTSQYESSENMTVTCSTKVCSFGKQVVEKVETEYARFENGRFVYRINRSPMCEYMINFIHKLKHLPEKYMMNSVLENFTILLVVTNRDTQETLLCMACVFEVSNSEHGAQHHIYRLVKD
For orientation: In flow cytometry, cells or beads pass a laser one at a time.

A further assay has as its system MKN-45/Ubc-luc cells. The assay is described as follows: Proliferation assay (resazurin/AlamarBlue), MKN-45. Format: cell-based. To be noted: MKN-45, 72 hours. In short, it runs like this:
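MKN-45 cells carrying constitutive Ubc-driven luciferase reporter, treated the day after seeding with eleven 2-fold dilutions (0.1% DMSO) for 72 h at 37 °C. Viability by resazurin, referenced to day-0 plate; GI50 from % growth (100 none, 0 stasis, −100 kill) and residual viability at top concentration.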

Regarding `COc1ccc(C(N)=O)c(-c2c(Cl)c(F)cc3c2[C@H](C)[C@@](CN[C@H]2CC[C@H](C(=O)NCCCCCc4cccc5c4CN(C4CCC(=O)NC4=O)C5=O)CC2)(c2ccccc2)O3)c1F` (stereo partly drawn) [Example 31, 2-((2S,3S,4S)-5-chloro-2-((((1r,4S)-4-((5-(2-(2,6-dioxopiperidin-3-yl)-1-oxoisoindolin-4-yl)pentyl)carbamoyl)cyclohexyl)amino)methyl)-6-fluoro-3-methyl-2-phenyl-2,3-dihydrobenzofuran-4-yl)-3-fluoro-4-methoxybenzamide], the GI50 – broadly, the concentration giving 50% growth inhibition – was 19 nM in assay [1] (Homo sapiens, SF-268); 6.6 nM in assay [4] (Homo sapiens); above 20000 nM in the assay on MKN-45/Ubc-luc cells (Homo sapiens). Also, the 50% inhibitory concentration (IC50) (as a rule, the concentration that gives 50% inhibition) in assay [2] is 1.8 nM; in assay [3] (Homo sapiens), above 20000 nM; in assay [5] (Homo sapiens, SF-268) it was 0.28 nM; in assay [6] (Homo sapiens) it was 1.9 nM. The DC50 in assay [7] was 0.6 nM.
For `COc1ccc(C(=O)N2CCC(OC3CCN(C(=O)[C@H]4CC[C@H](NC[C@]5(c6ccccc6)Oc6cc(F)c(Cl)c(-c7c(C(N)=O)ccc(OC)c7F)c6[C@@H]5C)CC4)CC3)CC2)cc1N1CCC(=O)NC1=O` (atropisomer, axis not shown) [Example 2, 2-((2S,3S,4S)-5-chloro-2-((((1r,4S)-4-(4-((1-(3-(2,4-dioxotetrahydropyrimidin-1(2H)-yl)-4-methoxybenzoyl)piperidin-4-yl)oxy)piperidine-1-carbonyl)cyclohexyl)amino)methyl)-6-fluoro-3-methyl-2-phenyl-2,3-dihydrobenzofuran-4-yl)-3-fluoro-4-methoxybenzamide], the GI50 in assay [1] (Homo sapiens, SF-268) was 41 nM; in assay [4] (Homo sapiens) it was 48 nM; in the assay with MKN-45/Ubc-luc cells (Homo sapiens), above 20000 nM. Besides, the IC50 in assay [2] was 1.4 nM; in assay [3] (Homo sapiens), above 20000 nM; in assay [5] (Homo sapiens, SF-268), 0.9 nM; in assay [6] (Homo sapiens), 13 nM. The compound further yielded a DC50 in assay [7] of 2 nM.
On to `COc1ccc(C(N)=O)c(-c2c(Cl)c(F)cc3c2[C@H](C)[C@@](CN[C@H]2CC[C@H](C(=O)N4CCC(OC5CCN(C(=O)CCC(=O)N[C@H](C(=O)N6C[C@H](O)C[C@H]6C(=O)N[C@@H](C)c6ccc(-c7scnc7C)cc6)C(C)(C)C)CC5)CC4)CC2)(c2ccccc2)O3)c1F` (atropisomer, axis not shown) [Example 41, (2S,4R)-1-((S)-2-(4-(4-((1-((1S,4r)-4-((((2S,3S,4S)-4-(6-carbamoyl-2-fluoro-3-methoxyphenyl)-5-chloro-6-fluoro-3-methyl-2-phenyl-2,3-dihydrobenzofuran-2-yl)methyl)amino)cyclohexane-1-carbonyl)piperidin-4-yl)oxy)piperidin-1-yl)-4-oxobutanamido)-3,3-dimethylbutanoyl)-4-hydroxy-N-((S)-1-(4-(4-methylthiazol-5-yl)phenyl)ethyl)pyrrolidine-2-carboxamide], for which the GI50 in assay [1] (Homo sapiens, SF-268) is 310 nM; in assay [4] (Homo sapiens), 270 nM; in the assay on MKN-45/Ubc-luc cells (Homo sapiens) it was above 2000 nM. Also, the IC50 in assay [2] is 2.3 nM; in assay [3] (Homo sapiens) it was above 2000 nM; in assay [5] (Homo sapiens, SF-268), 11 nM; in assay [6] (Homo sapiens), 79 nM. In assay [7], this compound came in with a DC50 of 27 nM.
As for `COc1ccc(C(N)=O)c(-c2c(Cl)c(F)cc3c2[C@H](C)[C@@](CN[C@H]2CC[C@H](C(=O)N[C@H]4CC[C@H](NC(=O)COc5cc(-c6scnc6C)ccc5CNC(=O)[C@@H]5C[C@@H](O)CN5C(=O)[C@@H](NC(=O)C5(F)CC5)C(C)(C)C)CC4)CC2)(c2ccccc2)O3)c1F` (atropisomer, axis not shown) [Example 39, (2S,4R)-N-(2-(2-(((1S,4S)-4-((1S,4R)-4-((((2S,3S,4S)-4-(6-carbamoyl-2-fluoro-3-methoxyphenyl)-5-chloro-6-fluoro-3-methyl-2-phenyl-2,3-dihydrobenzofuran-2-yl)methyl)amino)cyclohexane-1-carboxamido)cyclohexyl)amino)-2-oxoethoxy)-4-(4-methylthiazol-5-yl)benzyl)-1-((S)-2-(1-fluorocyclopropane-1-carboxamido)-3,3-dimethylbutanoyl)-4-hydroxypyrrolidine-2-carboxamide], the 50% growth inhibitory concentration (GI50) was 63 nM in assay [1] (Homo sapiens, SF-268); 170 nM in assay [4] (Homo sapiens); above 2000 nM in the assay with MKN-45/Ubc-luc cells (Homo sapiens). The IC50 is 3 nM in assay [2]; above 2000 nM in assay [3] (Homo sapiens); 1.8 nM in assay [5] (Homo sapiens, SF-268); 56 nM in assay [6] (Homo sapiens). The same compound returned a DC50 in assay [7] of 9 nM.
Take `COc1ccc(C(N)=O)c(-c2c(Cl)c(F)cc3c2[C@H](C)[C@@](CN[C@H]2CC[C@H](C(=O)N4CCN(CC5CCN(C(=O)COc6ccc(C)c(N7CCC(=O)NC7=O)c6)CC5)CC4)CC2)(c2ccccc2)O3)c1F` (atropisomer, axis not shown) [Example 22, 2-((2S,3S,4S)-5-chloro-2-((((1r,4S)-4-(4-((1-(2-(3-(2,4-dioxotetrahydropyrimidin-1(2H)-yl)-4-methylphenoxy)acetyl)piperidin-4-yl)methyl)piperazine-1-carbonyl)cyclohexyl)amino)methyl)-6-fluoro-3-methyl-2-phenyl-2,3-dihydrobenzofuran-4-yl)-3-fluoro-4-methoxybenzamide]: the GI50 in assay [1] (Homo sapiens, SF-268) is 9.5 nM; in assay [4] (Homo sapiens) it was 9.5 nM; in the assay on MKN-45/Ubc-luc cells (Homo sapiens), above 2000 nM. For the same compound, the IC50 in assay [2] is 1 nM; in assay [3] (Homo sapiens), above 2000 nM; in assay [5] (Homo sapiens, SF-268), 0.18 nM; in assay [6] (Homo sapiens), 2 nM. The DC50 in assay [7] turned out to be 0.4 nM.
On to `COc1ccc(C(N)=O)c(-c2c(Cl)c(F)cc3c2[C@H](C)[C@@](CN[C@H]2CC[C@H](C(=O)N4CCC(OC5CCN(C(=O)COc6cc(-c7scnc7C)ccc6CNC(=O)[C@@H]6C[C@@H](O)CN6C(=O)[C@@H](NC(=O)C6(F)CC6)C(C)(C)C)CC5)CC4)CC2)(c2ccccc2)O3)c1F` (atropisomer, axis not shown) [Example 38, (2S,4R)-N-(2-(2-(4-((1-((1S,4r)-4-((((2S,3S,4S)-4-(6-carbamoyl-2-fluoro-3-methoxyphenyl)-5-chloro-6-fluoro-3-methyl-2-phenyl-2,3-dihydrobenzofuran-2-yl)methyl)amino)cyclohexane-1-carbonyl)piperidin-4-yl)oxy)piperidin-1-yl)-2-oxoethoxy)-4-(4-methylthiazol-5-yl)benzyl)-1-((S)-2-(1-fluorocyclopropane-1-carboxamido)-3,3-dimethylbutanoyl)-4-hydroxypyrrolidine-2-carboxamide], for which the concentration for 50% growth inhibition (GI50) is 24 nM in assay [1] (Homo sapiens, SF-268); 22 nM in assay [4] (Homo sapiens); above 2000 nM in the assay on MKN-45/Ubc-luc cells (Homo sapiens). Besides, the IC50 in assay [2] is 7 nM; in assay [3] (Homo sapiens), above 2000 nM; in assay [5] (Homo sapiens, SF-268), 0.42 nM; in assay [6] (Homo sapiens), 4 nM. In assay [7], this compound yielded a DC50 of 1 nM.
On to `CN[C@@H](C)C(=O)N[C@H](C(=O)N1C[C@@H](NCC(=O)N[C@H]2CC[C@H](NC(=O)[C@H]3CC[C@H](NC[C@]4(c5ccccc5)Oc5cc(F)c(Cl)c(-c6c(C(N)=O)ccc(OC)c6F)c5[C@@H]4C)CC3)CC2)C[C@H]1C(=O)N[C@@H]1CCCc2ccccc21)C1CCCCC1` (atropisomer, axis not shown) [Example 44, (2S,4S)-4-((2-(((1S,4S)-4-((1S,4S)-4-((((2S,3S,4S)-4-(6-carbamoyl-2-fluoro-3-methoxyphenyl)-5-chloro-6-fluoro-3-methyl-2-phenyl-2,3-dihydrobenzofuran-2-yl)methyl)amino)cyclohexane-1-carboxamido)cyclohexyl)amino)-2-oxoethyl)amino)-1-((S)-2-cyclohexyl-2-((S)-2-(methylamino)propanamido)acetyl)-N-((R)-1,2,3,4-tetrahydronaphthalen-1-yl)pyrrolidine-2-carboxamide], for which the 50% growth inhibitory concentration (GI50) is 1300 nM in assay [1] (Homo sapiens, SF-268); 670 nM in assay [4] (Homo sapiens); above 2000 nM in the assay on MKN-45/Ubc-luc cells (Homo sapiens). In addition, the concentration for half-maximal inhibition (IC50) is 2.3 nM in assay [2]; above 2000 nM in assay [3] (Homo sapiens); 1.9 nM in assay [5] (Homo sapiens, SF-268); 630 nM in assay [6] (Homo sapiens). For the same compound, the DC50 in assay [7] stood at 2800 nM.
On to “N-(4-(1-((1S,4r)-4-((((2S,3S,4S)-4-(6-carbamoyl-2-fluoro-3-methoxyphenyl)-5-chloro-6-fluoro-3-methyl-2-phenyl-2,3-dihydrobenzofuran-2-yl)methyl)amino)cyclohexane-1-carbonyl)piperidin-4-yl)butyl)-3-(2,4-dioxotetrahydropyrimidin-1(2H)-yl)-4-methoxybenzamide [Example 18]”, for which the 50% growth inhibitory concentration (GI50) in assay [1] was 60 nM; in assay [4], 27 nM; in the assay with MKN-45/Ubc-luc cells it was above 2000 nM. The half-maximal inhibitory concentration (IC50) is 3.9 nM in assay [2], above 2000 nM in assay [3], 1.3 nM in assay [5] and 9.9 nM in assay [6]. In assay [7], this compound gave a DC50 of 2 nM.

The values above are taken from US20240382600A1, “BIFUNCTIONAL DEGRADERS COMPRISING A TEAD BINDER” (Novartis AG, priority 2021, published 2024).
